# Results: patent publication US20250002450A1, “CATIONIC STEROID COMPOUNDS, METHOD OF OBTAINING THEREOF, FORMULATIONS COMPRISING THEREOF AND THEIR USES” (UNIVERSIDADE DO PORTO, priority 2021, published 2025)
# Experiments:
# [1] = tested on: E. coli ATCC 25922; test: Membrane integrity, propidium iodide influx assay (SYTO 9/PI); format: cell-based, Escherichia coli
# Procedure: The influx of PI in E. coli ATCC 25922 treated with 2×MIC, MIC, and ½×MIC of compound 1 was evaluated using a commercial kit that includes fluorescent nucleic acid stains SYTO® 9 and PI. SYTO® 9 can enter cells with intact or damaged membranes, generally labeling both, whereas PI only penetrates cells with severe membrane lesions, causing a reduction in SYTO® 9 fluorescence when both dyes are present.
# In these assays, COL and AMP were used as controls. COL is a polycationic antimicrobial peptide with a complex mode of action, that ultimately solubilizes the bacterial cell membrane. AMP is an aminopenicillin that inhibits cell wall synthesis by inhibiting penicillin-binding proteins. E. coli ATCC 25922 cells were treated with compound 1 and, at several time-points (0, 1, and 18 h), samples were taken, and SYTO® 9/PI ratio was determined ([FIG. 4]). The entrance of PI is reflected in a reduction of this ratio.
# Briefly, E. coli ATCC 25922 colonies from overnight cultures in MHA were suspended in CAMHB to prepare an inoculum with a final concentration of approximately 5×10^5 CFU/mL. The tubes were incubated overnight at 36° C. in a water bath with shaking. Following this, the cell suspensions were centrifuged at 3500 rpm for 15 min, the supernatant was removed, the cells were carefully resuspended in fresh CAMHB and the suspension was adjusted to 0.5 McFarland. An aliquot of this suspension was then added to each tube of CAMHB alone (control) or CAMHB plus an appropriate amount of test compound. […] The tubes were incubated at 36 degrees C. in a water bath with shaking and, at pre-established time points (0, 1, and 18 h), […] aliquots were retrieved for further analysis. After the exposure time, cells were washed two times, resuspended in 0.85% NaCl, and 100 μL of each cell suspension was distributed in the wells of a microtiter plate, in triplicate. 100 μL of a mixture of 30 μM PI and 5 μM SYTO® 9 prepared in ultrapure water were added to each well, and the plates were incubated at room temperature, in the dark, for 15 min. The fluorescence intensity of the stained bacterial suspensions was determined using a microplate reader (Synergy HT, BioTek Instruments, Winooski, VT, USA) by two consecutive measurements with excitation wavelength 485 nm and emission wavelength 528 nm (SYTO® 9) or 590 nm (PI). Data were analyzed by subtracting background fluorescence from each sample, dividing the fluorescence intensity of SYTO® 9 by fluorescence intensity of PI, and the results are presented as a percentage of control. Three independent assays were performed in triplicate for each experimental condition.
# [2] = tested on: C. albicans ATCC 10231; test: Time-kill kinetics; format: cell-based, Candida albicans
# Procedure: As mentioned for antibacterial activity, time-kill plots allow the evaluation of killing of a microbial isolate over time and establishing how much exposure time is needed in order to achieve a fungicidal effect, which is usually defined by ≥99.9% killing of the initial inoculum and is determined by a 3-log10-unit decrease in CFU/mL. […] Time-kill kinetics of compound 1 were evaluated for C. albicans ATCC 10231.
# Determination of killing of C. albicans ATCC 10231 over time was carried out using the time-kill method, as previously described. This assay was performed for concentrations of compound 1 ranging between 64 and 8 μg/mL. Colonies from 24 h cultures in SDA were suspended in sterile saline and adjusted to 0.5 McFarland. An aliquot of this suspension was then added to each tube of RPMI alone (control) or RPMI plus an appropriate amount of compound 1, to give an inoculum of approximately 10^5 CFU/mL in a final volume of 10 mL. Tubes were incubated at 36° C. in a water bath with shaking and vortexed prior to removing each sample for the determination of colony counts. At predetermined time points (30 min, 1, 1.5, 2, 3, 4, 6, 8, and 12 h), 100 μL aliquots were aseptically removed from each tube, serially diluted in sterile saline, and spread on SDA plates. Colony counts were determined following incubation at 36° C. for 24 to 48 h and log10 CFU/mL was plotted against time. At least three independent experiments were performed.
smiles,measurement,setting,value
"C[C@H](CCC(=O)NCCN)[C@H]1CC[C@H]2[C@@H]3CC[C@@H]4C[C@H](O)CC[C@]4(C)[C@H]3C[C@H](O)[C@]12C [Compound 1, (R)—N-(2-aminoethyl)-4-((3R,5R,8R,9S,10S,12S,13R,14S,17R)-3,12-dihydroxy-10,13-dimethylhexadecahydro-1H-cyclopenta[a]phenanthren-17-yl) pentanamida]",reduction in SYTO 9/PI ratio vs untreated control,"[1]; 32 μg/mL (MIC), after 1 and 18 h",significant
same,reduction in SYTO 9/PI ratio vs untreated control,"[1]; 64 μg/mL (2×MIC, MBC), 0, 1, 18 h",significant at all time points
same,exposure time to fungicidal effect (≥99.9% killing),[2]; 64 μg/mL (MIC),approximately 4 h
same,additional time to produce an additional 1-log10-unit decrease in CFU/mL,"[2]; 64 μg/mL, after the first 2 h",10 h
same,decrease in CFU/mL each hour,"[2]; 64 μg/mL, until 2 h of exposure",1 log10-unit
same,type of killing (in words),[2]; 64-8 μg/mL,concentration-dependent killing
